Laboratory results as given in patent US20010014694A1, “Substituted phenyl compounds and derivatives thereof that modulate the activity of endothelin” (priority 1996, published 2001).

Key:
human ETB receptor = biological target: T1, human ETB receptor (Homo sapiens, UniProt P24530); experiment: Binding Test #2: inhibition of 125I-labeled ET-1 binding to ETB receptors (transfected COS7 cell membranes); settings: ETB over ETA; preferably at least 3-fold greater affinity, more preferably 5-fold or more
T1 construct: expressed in transfected cells; host or cells: COS7 cells, membrane preparation
T1 sequence (P24530 27-442): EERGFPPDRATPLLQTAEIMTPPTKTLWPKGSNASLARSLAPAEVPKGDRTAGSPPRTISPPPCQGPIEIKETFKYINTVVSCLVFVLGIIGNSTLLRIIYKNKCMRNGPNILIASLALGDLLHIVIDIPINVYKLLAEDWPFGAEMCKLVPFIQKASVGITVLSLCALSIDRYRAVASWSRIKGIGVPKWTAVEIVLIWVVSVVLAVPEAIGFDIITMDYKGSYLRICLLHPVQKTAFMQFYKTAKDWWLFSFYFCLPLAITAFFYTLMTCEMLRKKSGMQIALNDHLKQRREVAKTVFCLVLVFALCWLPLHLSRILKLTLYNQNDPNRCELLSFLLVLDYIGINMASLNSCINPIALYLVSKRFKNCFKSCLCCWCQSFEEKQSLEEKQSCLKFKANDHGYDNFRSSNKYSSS
Source text: (§1) Compounds that are potential endothelin antagonists are identified by testing their ability to compete with ^125I-labeled ET-1 for binding to human ETA receptors or ETB receptors present on isolated cell membranes. The effectiveness of the test compound as an antagonist or agonist of the biological tissue response of endothelin can also be assessed by measuring the effect on endothelin induced contraction of isolated rat thoracic aortic rings. The ability of the compounds to act as antagonists or agonists for ETB receptors can be assess by testing the ability of the compounds are to inhibit endothelin-1 induced prostacyclin release from cultured bovine aortic endothelial cells.
(§2) B. Endothelin Binding Inhibition—Binding Test #2: Inhibition of Binding to ETB Receptors
(§3) COS7 cells were transfected with DNA encoding the ETB receptor, The resulting cells, which express the human ETB receptor, were grown to confluence in T-150 flasks. Membrane was prepared as described above. The binding assay was performed as described above using the membrane preparation diluted with binding buffer to a concentration of 1 μg/50 μl.
Briefly, the COS7 cells, described above, that had been transfected with DNA encoding the ETB receptor and express the human ETB receptor on their surfaces were grown to confluence in T-175 flasks. Cells from multiple flasks were collected by scraping, pooled and centrifuged for 10 min at 190×g. The cells were resuspended in phosphate buffered saline (PBS) containing 10 mM EDTA using a Tenbroeck homogenizer. The suspension was centrifuged at 4° C. 57,800×g for 15 min, the pellet was resuspended in 5 ml of buffer A (5 mM HEPES buffer, pH 7.4 containing aprotinin (100 KIU/ml)) and then frozen and thawed once. Five ml of Buffer B (5 mM HEPES Buffer, pH 7.4 containing 10 mM MnCl2 and 0.001% deoxyribonuclease Type 1) was added, the suspension mixed by inversion and then incubated at 37° C. for 30 minutes. The mixture was centrifuged at 57,800×g as described above, the pellet washed twice with buffer A and then resuspended in buffer C (30 mM HEPES buffer, pH 7.4 containing aprotinin (100 KIU/ml) to give a final protein concentration of 2 mg/ml.
The binding assay was performed as described above using the membrane preparation diluted to give 1 μg/50 μl of binding buffer.

ETA and ETB receptors = experiment: Endothelin binding inhibition assays of the Examples, result stated for ETA and/or ETB; set-up: species or system human; settings: relative to the other compounds listed; in vitro binding assays
Source text: as §1
(§4) A. Endothelin Binding Inhibition—Binding Test #1: Inhibition of Binding to ETA Receptors
(§5) TE 671 cells (ATCC Accession No. HTB 139) express ETA receptors. These cells were grown to confluence in T-175 flasks. Cells from multiple flasks were collected by scraping, pooled and centrifuged for 10 min at 190×g. The cells were resuspended in phosphate buffered saline (PBS) containing 10 mM EDTA using a Tenbroeck homogenizer. The suspension was centrifuged at 4° C. at 57,800×g for 15 min, the pellet was resuspended in 5 ml of buffer A (5 mM HEPES buffer, pH 7.4 containing aprotinin (100 KIU/ml)) and then frozen and thawed once. 5 ml of Buffer B (5 mM HEPES Buffer, pH 7.4 containing 10 mM MnCl2 and 0.001% deoxyribonuclease Type 1) was added, the suspension mixed by inversion and then incubated at 37° C. for 30 minutes. The mixture was centrifuged at 57,800×g as described above, the pellet washed twice with buffer A and then resuspended in buffer C (30 mM HEPES buffer, pH 7.4 containing aprotinin (100 KIU/ml) to give a final protein concentration of 2 mg/ml and stored at −70° C. until use.
(§6) The membrane suspension was diluted with binding buffer (30 mM HEPES buffer, pH 7.4 containing 150 mM NaCl, 5 mM MgCl2, 0.5% Bacitracin) to a concentration of 8 μg/50 μl. ^25I-endothelin-1 (3,000 cpm, […]) was added to 50 μl of either: (A) endothelin-1 (for non specific binding) to give a final concentration 80 nM); (B) binding buffer (for total binding); or (C) a test compound (final concentration 1 nM to 100 μM). The membrane suspension (50 μl), containing up to 8 μg of membrane protein, was added to each of (A), (B), or (C). Mixtures were shaken, and incubated at 4° C. for 16-18 hours, and then centrifuged at 4° C. for 25 min at 2,500×g. Alternatively, the incubation was conducted at 24° C. When incubated at 24° C., the IC50 concentrations are 2- to 10-fold higher than when the incubation is conducted at 4° C. This, must be kept in mind when comparing IC50 concentrations among compounds provided herein.
The supernatant, containing unbound radioactivity, was decanted and the pellet counted on a Genesys multiwell gamma counter. The degree of inhibition of binding (D) was calculated according to the following equation: [formula]
Each test was generally performed in triplicate.
as §2, §3
Briefly, the COS7 cells, described above, that had been transfected with DNA encoding the ETB receptor and express the human ETB receptor on their surfaces were grown to confluence in T-175 flasks. Cells from multiple flasks were collected by scraping, pooled and centrifuged for 10 min at 190×g. The cells were resuspended in phosphate buffered saline (PBS) containing 10 mM EDTA using a Tenbroeck homogenizer. The suspension was centrifuged at 4° C. […]

human ETA receptors = biological target: T2, human ETA receptors (Homo sapiens, UniProt P25101); experiment: Binding Test #1: inhibition of 125I-labeled ET-1 binding to ETA receptors (TE 671 cell membranes); settings: ETA over ETB; preferably at least 3-fold greater affinity, more preferably 5-fold or more
T2 construct: endogenous in cells; host or cells: TE 671 cells (ATCC HTB 139), membrane preparation
T2 sequence (P25101 21-427): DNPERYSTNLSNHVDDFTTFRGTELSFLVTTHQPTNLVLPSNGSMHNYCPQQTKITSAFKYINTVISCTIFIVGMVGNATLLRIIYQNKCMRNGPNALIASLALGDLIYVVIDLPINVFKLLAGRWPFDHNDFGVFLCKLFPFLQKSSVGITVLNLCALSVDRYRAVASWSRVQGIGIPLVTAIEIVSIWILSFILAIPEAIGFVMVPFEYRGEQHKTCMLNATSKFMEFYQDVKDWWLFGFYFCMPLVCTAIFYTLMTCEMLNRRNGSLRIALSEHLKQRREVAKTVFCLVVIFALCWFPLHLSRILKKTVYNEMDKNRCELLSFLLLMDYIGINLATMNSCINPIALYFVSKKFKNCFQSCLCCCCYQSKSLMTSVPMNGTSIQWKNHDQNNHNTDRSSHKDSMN
Source text: as §1, §4, §5
as §6, with “When incubated at 24° C., the IC50 concentrations are 2- to 10-fold higher than when the incubation is conducted at 4° C. This, must be kept in mind when comparing IC50 concentrations among compounds provided herein.” left out
The supernatant, containing unbound radioactivity, was decanted and the pellet counted on a Genesys multiwell gamma counter. The degree of inhibition of binding (D) was calculated according to the following equation: [formula] […]

[1] = system: non-cardiovascular tissues, such as kidney, adrenal gland, and cerebellum (ETB receptors predominate); settings: cited from earlier work

Question: Which results are given for “2-[3,4-(methylenedioxy)phenoxy]-6-[2-(1-propenyl)-3,4-(methylenedioxy)phenoxy]benzoic acid [Example 17]”?
Answer: ETB selective (interact with greater affinity with one receptor sub-type than with the other) (human ETB receptor): ETB selective; More active among these compounds (ETA and ETB receptors): More active

Question: With “2-[3,4-(methylenedioxy)phenoxy]-6-[(2-carboxyethyl)-4-methoxyphenoxy]benzoic acid [Example 23]” as the compound, how does the “More active among these compounds” value (ETA and ETB receptors) read?
Answer: More active

Question: Which “ETA selective (interact with greater affinity with one receptor sub-type than with the other)” value (shortened to “ETA selective”) (human ETA receptors) does the source give for “4,6-Bis[2-carboxy-3,4-(methylenedioxy)phenoxy]-2-(methylthio)pyrimidine” here?
Answer: ETA selective

Question: With “4-[2-carboxy-3,4-(methylenedioxy)phenoxy]-6-[3,4-(methylenedioxy)phenoxy]-2-(methylthio)-pyrimidine” as the compound, how does the “ETA selective” value (human ETA receptors) read?
Answer: ETA selective

Question: Which “More active among these compounds” value (ETA and ETB receptors) does the source give for COc1ccc(Oc2cccc(Oc3ccc4c(c3)OCO4)c2C(=O)O)cc1 [Example 1, 2-(4-Methoxyphenoxy)-6-[3,4-(methylenedioxy)phenoxy]benzoic acid] here?
Answer: More active

Question: For Cc1ccc(Oc2cccc(Oc3ccc4c(c3)OCO4)c2C(=O)O)cc1 [Example 2, 2-[3,4-(methylenedioxy)phenoxy]-6-(4-methylphenoxy)benzoic acid], which “More active among these compounds” value (ETA and ETB receptors) is on record?
Answer: More active

Question: Which “More active among these compounds” value (ETA and ETB receptors) does the source give for O=C(O)c1c(Oc2ccc3c(c2)OCO3)cccc1Oc1ccc2c(c1)OCO2 [Example 5, 2,6-bis-[3,4-(methylenedioxy)phenoxy]benzoic acid] here?
Answer: More active

Question: For COc1ccc(Oc2cccc(Oc3ccc(OC)cc3)c2C(=O)O)cc1 [Example 6, 2,6-bis-(4-methoxyphenoxy)benzoic acid], which “ETB selective (interact with greater affinity with one receptor sub-type than with the other)” value (shortened to “ETB selective”) (human ETB receptor) is on record?
Answer: ETB selective

Question: What about the melting point of the same compound?
Answer: 222 to 224 °C

Question: Which “More active among these compounds” value (ETA and ETB receptors) does the source give for Cc1ccc(Oc2cccc(Oc3ccc4c(c3)OCO4)c2C(=O)O)c(Br)c1 [Example 7, 2-(2-Bromo-4-methylphenoxy)-6-[3,4-(methylenedioxy)phenoxy]benzoic acid] here?
Answer: More active

Question: For Cc1ccc(Oc2cccc(Oc3ccc(C)cc3)c2C(=O)O)cc1 [Example 8, 2,6-bis-(4-methylphenoxy)benzoic acid], which “ETB selective” value (human ETB receptor) is on record?
Answer: ETB selective

Question: And the melting point?
Answer: 205 to 206 °C

Question: For O=C(O)c1c(Oc2ccccc2)cccc1Oc1ccccc1 [Example 9, 2,6-diphenoxybenzoic acid], which melting point is on record?
Answer: 150 to 153 °C

Question: Which “More active among these compounds” value (ETA and ETB receptors) does the source give for Cc1cccc(Oc2cccc(Oc3ccc4c(c3)OCO4)c2C(=O)O)c1 [Example 11, 2-[3,4-(methylenedioxy)phenoxy]-6-(3-methylphenoxy)benzoic acid] here?
Answer: More active

Question: With COc1ccc(Sc2cccc(Oc3ccc4c(c3)OCO4)c2C(=O)O)cc1 [Example 12, 2-(4-methoxythiophenoxy)-6-[3,4-(methylenedioxy)phenoxy]benzoic acid] as the compound, how does the “More active among these compounds” value (ETA and ETB receptors) read?
Answer: More active

Question: With O=C(O)Cc1cccc(Oc2cccc(Oc3ccc4c(c3)OCO4)c2C(=O)O)c1 [Example 13, 2-[(3-Carboxymethyl)phenoxy]-6-[3,4-(methylenedioxy)phenoxy]benzoic acid] as the compound, how does the “ETA selective” value (human ETA receptors) read?
Answer: ETA selective

Question: And the “ETB selective” value (human ETB receptor)?
Answer: ETB selective

Question: For O=C(O)Cc1ccc(Oc2cccc(Oc3ccc4c(c3)OCO4)c2C(=O)O)cc1 [Example 14, 2-[(4-Carboxymethyl)phenoxy]-6-[3,4-(methylenedioxy)phenoxy]benzoic acid], which “ETA selective” value (human ETA receptors) is on record?
Answer: ETA selective

Question: For CCCc1cc2c(cc1Oc1cccc(Oc3ccc4c(c3)OCO4)c1C(=O)O)OCO2 [Example 18, 2-(3,4-methylenedioxy)phenoxy-6-[2-propyl-4,5-(methylenedioxy)phenoxy]benzoic acid], which “More active among these compounds” value (ETA and ETB receptors) is on record?
Answer: More active

Question: Which results are given for O=C(O)CCc1cc2c(cc1Oc1cccc(Oc3ccc4c(c3)OCO4)c1C(=O)O)OCO2 [Example 19, 2-(3,4-methylenedioxy)phenoxy-6-[2-carboxyethyl-4,5-(methylenedioxy)phenoxy]benzoic acid]?
Answer: ETB selective (interact with greater affinity with one receptor sub-type than with the other) (human ETB receptor): ETB selective; More active among these compounds (ETA and ETB receptors): More active

Question: With O=C(O)/C=C/c1cc2c(cc1Oc1cccc(Oc3ccc4c(c3)OCO4)c1C(=O)O)OCO2 [Example 20, 2-(3,4-methylenedioxy)phenoxy-6-[2-carboxy-trans-ethenyl-4,5-(methylenedioxy)phenoxy]benzoic acid] as the compound, how does the “More active among these compounds” value (ETA and ETB receptors) read?
Answer: More active

Question: With COc1cccc(Oc2cccc(Oc3ccc4c(c3)OCO4)c2C(=O)O)c1 [Example 26, 2-[3,4-(methylenedioxy)phenoxy]-6-(3-methoxyphenoxy)benzoic acid] as the compound, how does the “More active among these compounds” value (ETA and ETB receptors) read?
Answer: More active

Question: With “(Thr^2,Phe^4,Thr^5,Tyr^6,Lys^7,Tyr^14) endothelin-1 [endothelin-3]” as the compound, how does the “extent of inhibition of 125I-labelled endothelin-1 binding” value [1] read?
Answer: to the same extent

Question: With “Ethyl 2-[3,4-(methylenedioxy)phenoxy]-6-[2-(carboxyethyl)-4-methoxyphenoxy]benzoate [Example 22]” as the compound, how does the “More active among these compounds” value (ETA and ETB receptors) read?
Answer: More active
